This note sets out measurements from US8791050B2, “Herbicidal compositions” (priority 1998, dated 2014).

Assay type in all cases: in vivo
Assay [1] has as its system Amaranthus retroflexus (AMARE). As to the kind of experiment: Herbicidal effect in rice, field trial, Amaranthus retroflexus. Particulars: Table 1 field trial, post-emergence, scoring 7 days after application, 45 g of AS/ha. As to the method: (§1) The herbicidal efficacy of the active compounds or active compound mixtures was scored visually using the treated plots in comparison to untreated control plots. The damage and development of all above-ground parts of the plants were recorded. Scoring was carried out using a percentage scale (100% effect=all plants killed; 50% effect=50% of the plants and the green parts of the plants killed; 0% effect=no noticeable effect=like control plot). The scores of in each case 4 plots were averaged.
(§2) If the observed activity values already exceed the formal sum of the values for the trials with the individual applications, they also exceed the expected value according to Colby which is calculated using the following formula and which is likewise considered to be an indication of synergism (cf. S. R. Colby; in Weeds 15 (1967) pp. 20 to 22): E=A+B−(A·B/100)
Crop plants were grown outdoors on plots under natural outdoor conditions, and seeds or rhizome pieces of typical harmful plants were laid out or the natural weed growth was utilized. Treatment with the compositions according to the invention was carried out after the harmful plants had emerged and the crop plants were, generally, at the 2- to 4-leaf stage; in some cases (as stated), application of individual active compounds or active compound combinations was carried out pre-emergence (cf. Example 1) or as a sequential treatment partly pre-emergence and/or post-emergence.
After the application, for example 2, 4, 6 and 8 weeks after the application, the effect of the preparations was scored visually by comparison with untreated controls (cf. scoring in Example 1). In the field trial as well, the compositions according to the invention have synergistic herbicidal activity against a broad spectrum of economically important weed grasses and broad-leaved weeds. […] Moreover, the effects in essential phases of the scoring period were above the expected values according to Colby (cf. scoring in Example 1), also indicating synergism. […]

Assay [2] relates to Ipomoea spp (IPOSS). As to the kind of experiment: Herbicidal effect in rice, field trial, Ipomoea spp. Particulars: Table 11 field trial, post-emergence 2-4-leaf stage, scoring 28 days after application, 45 g of AS/ha. As to the method:
as §1, §2
(§3) Crop plants were grown outdoors on plots under natural outdoor conditions, and seeds or rhizome pieces of typical harmful plants were laid out or the natural weed growth was utilized. […]
(§4) After the application, for example 2, 4, 6 and 8 weeks after the application, the effect of the preparations was scored visually by comparison with untreated controls (cf. scoring in Example 1). […]

For assay [3], the system named is Sesbania exaltata (SEBEX). As to the kind of experiment: Herbicidal effect in rice, field trial, Sesbania exaltata. Particulars: Table 1 field trial, post-emergence, scoring 7 days after application, 45 g of AS/ha. Here is the method: as §1, §2, §3, §4
Assay [4] has as its system Cyperus difformis (CYPDI). As to the kind of experiment: Herbicidal effect in rice, field trial, Cyperus difformis. To be noted: Table 11 field trial, post-emergence 2-4-leaf stage, scoring 28 days after application, 45 g of AS/ha. Here is the method: as §1, §2, §3, §4

`COc1cc(OC)nc(Oc2cccc(Oc3nc(OC)cc(OC)n3)c2C(=O)[O-])n1.[Na+]` [(B4.6), bispyribac-Na]: in assay [1], the “Herbicidal effect (%) against AMARE” value is given as 93%. In assay [2], the “Herbicidal effect (in %) against IPOSS” value is listed as 91%. For the same molecule, the “Herbicidal effect (%) against SEBEX” value in assay [3] was 93%. Also, the “Herbicidal effect (in %) against CYPDI” value in assay [4] stood at 75%.
